Source: paper PMC11256326, “Discovery of Heparin Mimetic, Potent, and Selective Inhibitors of Human Clotting Factor XIIIa” (ACS Omega, 2024)

Key:
[1] = test system: CaCo-2 heterogeneous human epithelial colorectal adenocarcinoma cells; assay: cell viability, Alamar Blue, CaCo-2; assay type: cell-based; details: CaCo-2, 10 μM, 3 days
Procedure: (§1) To further evaluate the selectivity as well as the potential toxicity of inhibitors, we studied their effects on the clotting times of normal human plasma as well as their effects on the proliferation of three cell lines. On the one hand, the inhibitors’ effects on activated partial thromboplastin time (APTT) and prothrombin time (PT) were measured, as described earlier under in vitro conditions,[52]−[55] using variable concentrations (0–2000 μM) (Table 3). […] On the other hand, the antiproliferative properties of inhibitors 13 and 16 were evaluated in three cell lines of breast (MCF-7), intestine (CaCo-2), and kidney (HEK-293) (Figure 5B), as described earlier.[56] […] Overall, inhibitor 16 can be considered for further development as a potent, selective, and nontoxic inhibitor of human FXIIIa.
HEK-293 human embryonic kidney cells,[66] CaCo-2 heterogeneous human epithelial colorectal adenocarcinoma cells,[67] and MCF-7 human breast carcinoma cells[68] were treated as reported previously.[69],[70] […] Subsequently, fluorescence readings (λEx. = 560 nm and λEm. = 590 nm) were taken using the Synergy H1 multiplate reader (BioTek) to quantify cell numbers both in the absence (utilizing distilled water as a control) and the presence of inhibitors 13 and 16 (at a concentration of 10 μM; incubated for 3 days). […]

FXIIIa = molecular target: T1, FXIIIa (Homo sapiens, UniProt P00488); assay: FXIIIa-mediated fibrin(ogen) polymerization by SDS-PAGE; assay type: biochemical; details: for effect on FXIIIa-mediated fibrin(ogen) polymerization / γ–γ dimer formation: 5–3000 μM (13), 5–2000 μM (16)
T1 construct: purchased Haematologic Technologies; host or cells: human plasma
T1 sequence (P00488 39-732 limits assumed): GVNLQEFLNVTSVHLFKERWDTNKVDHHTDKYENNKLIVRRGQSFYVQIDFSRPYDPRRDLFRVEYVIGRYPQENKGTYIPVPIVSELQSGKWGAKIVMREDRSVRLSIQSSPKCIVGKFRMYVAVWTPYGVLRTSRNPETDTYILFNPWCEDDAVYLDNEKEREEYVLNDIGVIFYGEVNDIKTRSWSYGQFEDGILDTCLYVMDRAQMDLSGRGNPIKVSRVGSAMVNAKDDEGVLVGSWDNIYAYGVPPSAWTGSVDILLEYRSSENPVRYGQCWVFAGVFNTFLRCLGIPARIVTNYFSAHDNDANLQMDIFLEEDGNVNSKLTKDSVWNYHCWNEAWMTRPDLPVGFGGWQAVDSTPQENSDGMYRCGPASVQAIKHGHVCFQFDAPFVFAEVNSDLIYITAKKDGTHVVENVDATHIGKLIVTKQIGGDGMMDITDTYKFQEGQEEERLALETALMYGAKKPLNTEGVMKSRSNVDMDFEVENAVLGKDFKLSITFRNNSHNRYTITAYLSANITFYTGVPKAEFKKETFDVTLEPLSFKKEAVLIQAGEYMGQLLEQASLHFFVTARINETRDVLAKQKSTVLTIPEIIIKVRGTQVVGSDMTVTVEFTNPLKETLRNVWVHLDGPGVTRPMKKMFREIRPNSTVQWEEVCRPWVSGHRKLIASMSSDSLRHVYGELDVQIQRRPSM
Procedure: The effect of inhibitors 13 and 16 on FXIIIa-mediated fibrin(ogen) polymerization was investigated by sodium dodecyl sulfate-polyacrylamide gel electrophoresis (SDS-PAGE), as reported earlier.[36],[49] A solution containing 13 mg/mL fibrinogen and 2.0 μg/mL FXIIIa in Tris-HCl buffer of pH 7.4 containing 10 mM CaCl2 was either incubated with different concentrations of inhibitors 13 (5, 50, 500, 1000, 2000, and 3000 μM) or 16 (5, 50, 500, 1000, 1500, and 2000 μM) or buffer. The resulting mixture was then clotted in the presence of human α-thrombin (2.5 μg/mL). The clots were incubated for 24 h at room temperature before the addition of denaturing buffer and then incubated overnight at 25 °C. Samples were boiled in a water bath for 10 min before centrifugation at 12 000g at 20 °C for 3 min; the supernatants were examined by SDS-PAGE on homogeneous 10% cross-linked gels and stained with Coomassie Brilliant Blue. The first lane contains the protein markers, whereas the second lane contains the cross-linked fibrin(ogen) formed in the presence of human α-thrombin (Figure 7). […] In both cases, the inhibition appears to achieve 100% efficacy similar to the inhibition assay results.
The impact of inhibitors 13 and 16 on FXIIIa-mediated fibrin polymerization was further explored via gel electrophoresis, as previously described.[36],[49] […] The resulting clots were incubated for 24 h at room temperature before the addition of denaturing buffer containing 25 mM NaH2PO4, 1.9% (w/v) SDS, 5.7 M urea, and 1.9% (w/v) DTT, followed by overnight incubation at room temperature. Subsequently, the samples were boiled in a water bath for 10 min, followed by centrifugation at 12,000g at 20 °C for 3 min; the supernatants were then analyzed by SDS-PAGE on homogeneous 10% cross-linked gels and stained with Coomassie Brilliant Blue.

normal human plasma = assay: prothrombin time (PT) of normal human plasma; assay type: biochemical; details: in vitro
Procedure: as §1
Clotting times, including activated partial thromboplastin time (APTT) and prothrombin time (PT), were assessed in normal human plasma utilizing the BBL Fibrosystem fibrometer from Becton–Dickinson, as detailed in previous publications.[51]−[54] For the PT assay, thromboplastin-D was dissolved in 4 mL of highly purified water and then warmed to 37 °C. Subsequently, 10 μL of the inhibitor was added to 90 μL of normal human plasma and incubated for 30 s. Following this, 200 μL of prewarmed PT reagent was added, and the clotting time was recorded. In the APTT assay, 10 μL of the inhibitor was combined with 90 μL of normal human plasma and 100 μL of prewarmed APTT reagent (0.2% ellagic acid). After incubation for 4 min at 37 °C, clotting was initiated by adding 100 μL of prewarmed 0.025 M CaCl2, and the clotting time was documented. Multiple concentrations of each molecule were employed in both assays to establish a concentration vs effect curve.

| Compound | effect on proliferation / cell viability [1] | efficacy of inhibition of fibrin(ogen) polymerization (FXIIIa) [%] | effect on FXIIIa-mediated fibrin(ogen) polymerization / γ–γ dimer formation (FXIIIa) | PT2X (concentration required to double PT) (normal human plasma) [µM] |
| --- | --- | --- | --- | --- |
| Nc1c(/N=N/c2ccc(S(=O)(=O)CCOS(=O)(=O)O)cc2)c(S(=O)(=O)O)cc2cc(S(=O)(=O)O)c(/N=N/c3ccc(S(=O)(=O)CCOS(=O)(=O)O)cc3)c(O)c12 [compound 16] | does not significantly affect the proliferation | ~100 | concentration-dependently inhibited |  |
| Nc1c(S(=O)(=O)O)cc(Nc2ccc(Nc3nc(Cl)nc(Nc4ccccc4S(=O)(=O)O)n3)c(S(=O)(=O)O)c2)c2c1C(=O)c1ccccc1C2=O [compound 13] | does not significantly affect the proliferation | ~100 | concentration-dependently inhibited |  |
| Cc1cc(-c2ccc(/N=N/c3ccc4c(S(=O)(=O)O)cc(S(=O)(=O)O)c(N)c4c3O)c(C)c2)ccc1/N=N/c1ccc2c(S(=O)(=O)O)cc(S(=O)(=O)O)c(N)c2c1O [compound 18] |  |  |  | 497.9 ± 52 |
| COc1cc(-c2ccc(/N=N/c3ccc4c(S(=O)(=O)O)cc(S(=O)(=O)O)c(N)c4c3O)c(OC)c2)ccc1/N=N/c1ccc2c(S(=O)(=O)O)cc(S(=O)(=O)O)c(N)c2c1O [compound 19] |  |  |  | 3073.2 ± 281 |
